≈ marks a conversion by molar mass, not a printed value.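 96-well plates; 48 h exposure; 5 concentrations. Endpoints by linear interpolation between flanking doses. Not reached: highest tested concentration assigned. The concentration for 50% growth inhibition is given as GI50. At the TGI there is no net growth.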
Columns and labels:
Experiment in all cases: NCI-60 cell line screen, 48 h
DU-145 prostate = system: DU-145 prostate
M14 melanoma = system: M14 melanoma
HT29 colon = system: HT29 colon
OVCAR-4 ovarian = system: OVCAR-4 ovarian
MDA-MB-231 breast = system: MDA-MB-231 breast
SK-MEL-5 melanoma = system: SK-MEL-5 melanoma
IGROV1 ovarian = system: IGROV1 ovarian
NCI-H460 lung = system: NCI-H460 lung
T-47D breast = system: T-47D breast
K-562 leukemia = system: K-562 leukemia

SMILES: CCOC(=O)c1csc(NC(=O)C(C)N2CCCC2)n1 (stereo not given)
- TGI (DU-145 prostate): > 100 µM
- TGI (M14 melanoma): > 100 µM
- TGI (HT29 colon): > 100 µM
- TGI (OVCAR-4 ovarian): > 100 µM
- TGI (MDA-MB-231 breast): > 100 µM
- TGI (SK-MEL-5 melanoma): > 100 µM
- TGI (IGROV1 ovarian): > 100 µM
- TGI (NCI-H460 lung): > 100 µM
- TGI (T-47D breast): > 100 µM
- TGI (K-562 leukemia): > 100 µM

SMILES: O=c1oc2ccccc2c(O)c1Cc1ccc(Cc2c(O)c3ccccc3oc2=O)cc1
- TGI (DU-145 prostate): > 100 µM
- TGI (M14 melanoma): > 100 µM
- TGI (HT29 colon): > 100 µM
- TGI (OVCAR-4 ovarian): > 100 µM
- TGI (MDA-MB-231 breast): > 100 µM
- TGI (SK-MEL-5 melanoma): > 100 µM
- TGI (IGROV1 ovarian): > 100 µM
- TGI (NCI-H460 lung): > 100 µM
- TGI (T-47D breast): > 100 µM
- TGI (K-562 leukemia): > 100 µM

SMILES: O=C1NN(C2=NNC3(C(=O)N2)c2ccccc2-c2ccccc23)C(c2ccccc2)=N/C1=C/c1ccc(Cl)cc1
- GI50 (DU-145 prostate): 89.1 µg/mL (≈ 164 µM)
- TGI (DU-145 prostate): > 150 µg/mL
- GI50 (M14 melanoma): 59.8 µg/mL (≈ 110 µM)
- TGI (M14 melanoma): > 150 µg/mL
- GI50 (HT29 colon): 89.6 µg/mL (≈ 164 µM)
- TGI (HT29 colon): > 150 µg/mL
- GI50 (OVCAR-4 ovarian): 62.8 µg/mL (≈ 115 µM)
- TGI (OVCAR-4 ovarian): > 150 µg/mL
- GI50 (MDA-MB-231 breast): 47.9 µg/mL (≈ 87.8 µM)
- TGI (MDA-MB-231 breast): > 150 µg/mL
- GI50 (SK-MEL-5 melanoma): 46.4 µg/mL (≈ 85.1 µM)
- TGI (SK-MEL-5 melanoma): > 150 µg/mL
- GI50 (IGROV1 ovarian): 60.5 µg/mL (≈ 111 µM)
- TGI (IGROV1 ovarian): > 150 µg/mL
- GI50 (NCI-H460 lung): 48.7 µg/mL (≈ 89.3 µM)
- TGI (NCI-H460 lung): > 150 µg/mL
- GI50 (T-47D breast): 13.4 µg/mL (≈ 24.6 µM)
- TGI (T-47D breast): 149 µg/mL
- GI50 (K-562 leukemia): 50.4 µg/mL (≈ 92.6 µM)
- TGI (K-562 leukemia): > 150 µg/mL
